Measured values as given in patent US12459951B2, “Compounds that interact with RAS superfamily proteins for treatment of cancers, inflammatory diseases, rasopathies, and fibrotic disease” (SHY Therapeutics, LLC, priority 2022, dated 2025).
Read-outs that look alike come from different tables or passages of the source.

Columns and labels:
Rac-1 = target: T1, Rac-1 (Homo sapiens, UniProt P63000); assay: Ras GTP Binding Domain Inhibition Assay (Ras Superfamily Assay); conditions: read-out: Rac-1: % inh.
T1 construct: made in house
Method in brief: (§1)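 Binding of 100 nM fluorescent GTP (Cy3 or Cy5, 45 min, room temperature) was read after washes from plate-captured His-tagged protein. Beforehand, compounds at 20 μM or in dilution series for IC50 sat 3 h on the protein in Tris buffer pH 7.4 or 7.0 with 1% DMSO, Sos GEF optionally added for the last hour.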

KRas wild type = assay: as above; conditions: for KRas wild type + SOS: % inh.: with SOS; for KRas wild type: % inh.: without SOS
Method in brief: as §1

KRas G12D mutant = assay: as above; conditions: for KRas G12D mutant + SOS: % inh.: with SOS; for KRas G12D mutant: % inh.: without SOS
Method in brief: as §1

[1] = tested on: MiaPaca-2 (expressing KRAS G12C mutant); assay: Proliferation Assay (Cell Viability Assay); type: cell-based; conditions: Homo sapiens, MIA PaCa-2
Method in brief: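 MiaPaca-2 cells (KRAS G12C) were grown in DMEM-high glucose with 10% FBS, seeded at 2000–5000 cells/well and cultured overnight. Compounds were added at 10 μM final, or as serial dilutions for IC50, in 0.3% DMSO/10% FBS for 2–4 days at 37 °C, 5% CO2. Viability was measured with CellTiter 96 Aqueous One and % inhibition calculated.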

[2] = read-out: Proliferation in MiaPaca-2: IC50

Row | inhibition at 20 µM (Rac-1) [%] | KRas wild type + SOS: % inh. (KRas wild type; 20 μM compound) | KRas wild type: % inh. (KRas wild type; 20 μM compound) | KRas G12D mutant + SOS: % inh. (KRas G12D mutant; 20 μM compound) | KRas G12D mutant: % inh. (KRas G12D mutant; 20 μM compound) | IC50 [1, 2] [nM] | KRas wild type + SOS: % inh. (KRas wild type; at 20 μM) | KRas wild type: % inh. (KRas wild type; at 20 μM) | KRas G12D mutant + SOS: % inh. (KRas G12D mutant; at 20 μM) | KRas G12D mutant: % inh. (KRas G12D mutant; at 20 μM) | IC50 ([1]; Proliferation assay, MiaPaca-2, read-out: MiaPaca-2 IC50 (nM) Pancreatic) [nM] | Compound
1 | 76 to 100 |  |  |  |  | < 150 | D (D = 76-100% inhibition) | D (D = 76-100% inhibition) | D (D = 76-100% inhibition) | D (D = 76-100% inhibition) |  | Cc1c(-c2ccn(C)n2)cn2nc(-c3nccn3C)nc(Nc3cc(C(C)(C)O)ccn3)c12 [Compound 240, 2-(2-((5-Methyl-2-(1-methyl-1H-imidazol-2-yl)-6-(1-methyl-1H-pyrazol-3-yl)pyrrolo[2,1-f][1,2,4]triazin-4-yl)amino)pyridin-4-yl)propan-2-ol]
2 | 76 to 100 |  |  |  |  | < 150 | D (D = 76-100% inhibition) | D (D = 76-100% inhibition) | D (D = 76-100% inhibition) | D (D = 76-100% inhibition) |  | Cc1c(-c2ccn(C)n2)cn2nc(-c3nccn3C)nc(Nc3ccc(OC(F)(F)F)cn3)c12 [Compound 232, 5-Methyl-2-(1-methyl-1H-imidazol-2-yl)-6-(1-methyl-1H-pyrazol-3-yl)-N-(5-(trifluoro-methoxy)pyridin-2-yl)pyrrolo[2,1-f][1,2,4]triazin-4-amine]
3 | 76 to 100 |  |  |  |  | < 150 | D (D = 76-100% inhibition) | D (D = 76-100% inhibition) | D (D = 76-100% inhibition) | D (D = 76-100% inhibition) | 1 to 10 | Cc1c(-c2ccn(C)n2)cn2nc(-c3nccn3C)nc(Nc3cc4c(cn3)CCO4)c12 [Compound 221, N-(5-Methyl-2-(1-methyl-1H-imidazol-2-yl)-6-(1-methyl-1H-pyrazol-3-yl)pyrrolo[2,1-f][1,2,4]triazin-4-yl)-2,3-dihydrofuro[3,2-c]pyridin-6-amine]
4 | 50 to 75 |  |  |  |  | 510 to 1000 | D (D = 76-100% inhibition) | D (D = 76-100% inhibition) | D (D = 76-100% inhibition) | D (D = 76-100% inhibition) |  | COCCCS(=O)(=O)Nc1nc(-c2nccn2C)nn2cc(-c3ccccc3)c(-c3ccccc3)c12 [Compound 213, 3-Methoxy-N-(2-(1-methyl-1H-imidazol-2-yl)-5,6-diphenylpyrrolo[2,1-f][1,2,4]triazin-4-yl)propane-1-sulfonamide]
5 | 1 to 25 |  |  |  |  | > 1000 | B (B = 26-49% inhibition) | B (B = 26-49% inhibition) | A (A = 1-25% inhibition) | B (B = 26-49% inhibition) |  | CO[C@H]1C[C@H](Nc2nc(-c3nccn3C)nn3cc(-c4ccc(CCN)cc4)c(-c4ccccc4)c23)C1.Cl [Compound 207, 6-(4-(2-Aminoethyl)phenyl)-N-((1r,3r)-3-methoxycyclobutyl)-2-(1-methyl-1H-imidazol-2-yl)-5-phenylpyrrolo[2,1-f][1,2,4]triazin-4-amine hydrochloride salt]
6 | 1 to 25 |  |  |  |  | 510 to 1000 | 0 (0 = 0% inhibition) | A (A = 1-25% inhibition) | A (A = 1-25% inhibition) | A (A = 1-25% inhibition) |  | CO[C@H]1C[C@H](Nc2nc(-c3nccn3C)nn3cc(-c4cccc5c4CCO5)c(-c4ccccc4)c23)C1 [Compound 210, 6-(2,3-Dihydrobenzofuran-4-yl)-N-((1r,3r)-3-methoxycyclobutyl)-2-(1-methyl-1H-imidazol-2-yl)-5-phenylpyrrolo[2,1-f][1,2,4]triazin-4-amine]
7 | 76 to 100 |  |  |  |  | < 150 | D (D = 76-100% inhibition) | D (D = 76-100% inhibition) | D (D = 76-100% inhibition) | D (D = 76-100% inhibition) |  | Cc1c(-c2ccn(C)n2)cn2nc(-c3nccn3C)nc(Nc3ccc(OCC(F)(F)F)cn3)c12 [Compound 230, 5-Methyl-2-(1-methyl-1H-imidazol-2-yl)-6-(1-methyl-1H-pyrazol-3-yl)-N-(5-(2,2,2-trifluoroethoxy)pyridin-2-yl)pyrrolo[2,1-f][1,2,4]triazin-4-amine]

More lines, now with the values behind:

Row | Compound | inhibition at 20 µM (Rac-1) [%] | KRas wild type + SOS: % inh. (KRas wild type; 20 μM compound) | KRas wild type: % inh. (KRas wild type; 20 μM compound) | KRas G12D mutant + SOS: % inh. (KRas G12D mutant; 20 μM compound) | KRas G12D mutant: % inh. (KRas G12D mutant; 20 μM compound) | IC50 [1, 2] [nM] | KRas wild type + SOS: % inh. (KRas wild type; at 20 μM) | KRas wild type: % inh. (KRas wild type; at 20 μM) | KRas G12D mutant + SOS: % inh. (KRas G12D mutant; at 20 μM) | KRas G12D mutant: % inh. (KRas G12D mutant; at 20 μM) | IC50 ([1]; Proliferation assay, MiaPaca-2, read-out: MiaPaca-2 IC50 (nM) Pancreatic) [nM]
8 | COc1ccnc(Nc2nc(-c3nccn3C)nn3cc(-c4ccn(C)n4)c(C(=O)NCCN(C)C)c23)c1 [Compound 177, N-(2-(Dimethylamino)ethyl)-4-((4-methoxypyridin-2-yl)amino)-2-(1-methyl-1H-imidazol-2-yl)-6-(1-methyl-1H-pyrazol-3-yl)pyrrolo[2,1-f][1,2,4]triazine-5-carboxamide] | 76 to 100 | D (D = 76-100% inhibition) | D (D = 76-100% inhibition) | D (D = 76-100% inhibition) | C (C = 50-75% inhibition) | > 1000 |  |  |  |  | 
9 | COCCCNC(=O)c1c(-c2ccn(C)n2)cn2nc(-c3nccn3C)nc(N[C@H]3CC[C@H](OC)C3)c12 (racemic) [Compound 184, rac 4-(((1S,3S)-3-methoxycyclo-pentyl)amino)-N-(3-methoxypropyl)-2-(1-methyl-1H-imidazol-2-yl)-6-(1-methyl-1H-pyrazol-3-yl)pyrrolo[2,1-f][1,2,4]triazine-5-carboxamide] | 1 to 25 | A (A = 1-25% inhibition) | A (A = 1-25% inhibition) | 0 (0 = 0% inhibition) | B (B = 26-49% inhibition) | > 1000 |  |  |  |  | 
10 | CO[C@H]1C[C@H](Nc2nc(-c3nccn3C)nn3cc(-c4cccnc4)c(-c4cccnc4)c23)C1 [Compound 171, N-((1r,3r)-3-Methoxycyclobutyl)-2-(1-methyl-1H-imidazol-2-yl)-5,6-di(pyridin-3-yl)pyrrolo[2,1-f][1,2,4]triazin-4-amine] | 1 to 25 | B (B = 26-49% inhibition) | A (A = 1-25% inhibition) | A (A = 1-25% inhibition) | A (A = 1-25% inhibition) | > 1000 |  |  |  |  | 
11 | COC[C@@H]1CC[C@@H]1CNc1nc(-c2ccccn2)nn2cc(-c3ccn(C(C)C)n3)c(C)c12 (racemic) [Compound 11, rac 6-(1-Isopropyl-1H-pyrazol-3-yl)-N-(((1S,2R)-2-(methoxymethyl)cyclobutyl)methyl)-5-methyl-2-(pyridin-2-yl)pyrrolo[2,1-f][1,2,4]triazin-4-amine] | 0 | 0 (0 = 0% inhibition) | 0 (0 = 0% inhibition) | 0 (0 = 0% inhibition) | A (A = 1-25% inhibition) | > 1000 |  |  |  |  | 
12 | CO[C@H]1C[C@H](Nc2nc(-c3nccn3C)nn3cc(-c4ccc(CN)cc4)c(-c4ccccc4)c23)C1.Cl [Compound 206, 6-(4-(Aminomethyl)phenyl)-N-((1r,3r)-3-methoxycyclobutyl)-2-(1-methyl-1H-imidazol-2-yl)-5-phenylpyrrolo[2,1-f][1,2,4]triazin-4-amine hydrochloride salt] | 1 to 25 |  |  |  |  | > 1000 | A (A = 1-25% inhibition) | A (A = 1-25% inhibition) | A (A = 1-25% inhibition) | A (A = 1-25% inhibition) | 
